In patent US5843908A, “Pradimicins l and fl, and derivatives thereof” (Bristol-Myers Squibb Company, priority 1990, dated 1998):
In brackets after ≈: the same amount, converted by molar mass.

Tests used:
[1] = tested on: Candida albicans 83-2-14 (Juntendo); experiment: In vitro antifungal activity, serial agar dilution, yeast morphology agar (Tables 4b, 4c); type: cell-based; details: 60 h, 1/15 M phosphate buffer, 10^6 cells/ml, 40 hours at 28° C.
Protocol: (§1) Representative compounds of the present invention were tested in vitro against various fungi by serial agar dilution method in either Sabouraud dextrose agar or yeast morphology agar containing 1/15 M phosphate buffer. Thus, approximately 0.003 ml of fungal suspension containing 10^6 -10^7 cells/ml was applied to the surface of agar plates containing the test antibiotic. The minimum inhibitory concentration (MIC) values for the test compounds were recorded after the cultures had been incubated for 40-60 hours at 28° C.
(§2) ^1. Determined after incubation for 40 hours at 28° C.
(§3) (Trichophyton mentagrophytes: 60 hours, 28° C.).
(§4) ^2. Inoculum size 10^6 cells/ml (Trichophyton mentagrophytes:
(§5) 10^7 cells/ml) in yeast morphology agar containing 1/15 M phosphate
(§6) (Trichophyton mentaprophytes: 60 hours, 28° C.).

[2] = tested on: Candida tropicalis 85-8 (Kitasato); experiment: as above; type: cell-based; details: 60 h, 1/15 M phosphate buffer, 10^6 cells/ml, 40 hours at 28° C.
Protocol: as §1, §2, §3, §4, §5, §6

[3] = tested on: Trichophyton mentagrophytes #4329; experiment: as above; type: cell-based; details: 1/15 M phosphate buffer, 10^7 cells/ml, 60 hours, 28° C.
Protocol: as §1, §2, §3, §4, §5, §6

[4] = tested on: Cryptococcus neoformans D49; experiment: as above; type: cell-based; details: 60 h, 1/15 M phosphate buffer, 10^6 cells/ml, 40 hours at 28° C.
Protocol: as §1, §2, §3, §4, §5, §6

[5] = tested on: Candida albicans ATCC 32354 (B311); experiment: as above; type: cell-based; details: ATCC32354, 60 h, 1/15 M phosphate buffer, 10^6 cells/ml, 40 hours at 28° C.
Protocol: as §1, §2, §3, §4, §5, §6

Candida albicans A9540 = experiment: as above; type: cell-based; details: 60 h, 1/15 M phosphate buffer, 10^6 cells/ml, 40 hours at 28° C.
Protocol: as §1, §2, §3, §4, §5, §6

[6] = tested on: Cryptococcus neoformans IAM 4514; experiment: as above; type: cell-based; details: IAM4514, 60 h, 1/15 M phosphate buffer, 10^6 cells/ml, 40 hours at 28° C.
Protocol: as §1, §2, §3, §4, §5, §6

[7] = tested on: Candida tropicalis IAM 10241; experiment: as above; type: cell-based; details: IAM10241, 60 h, Candida tropicalis IAM 10241 ("IAN 10241" in Table 4b), 1/15 M phosphate buffer, 10^6 cells/ml, 40 hours at 28° C.
Protocol: as §1, §2, §3, §4, §5, §6

[8] = tested on: Saccharomyces cerevisiae ATCC 9763; experiment: as above; type: cell-based; details: ATCC9763, 60 h, 1/15 M phosphate buffer, 10^6 cells/ml, 40 hours at 28° C.
Protocol: as §1, §2, §3, §4, §5, §6

[9] = tested on: Aspergillus fumigatus IAM 2034; experiment: as above; type: cell-based; details: IAM2034, 60 h, 1/15 M phosphate buffer, 10^6 cells/ml, 40 hours at 28° C.
Protocol: as §1, §2, §3, §4, §5, §6

C. albicans A9540 = experiment: In vitro antifungal activity, serial agar dilution, Sabouraud dextrose agar (Table 4a); type: cell-based; details: Candida albicans, 10^6 CFU/ml, 40-60 hours at 28° C.
Protocol: as §1
(§7) Medium: Sabouraud dextrose agar

[10] = tested on: Fusarium moniliforme A2284; experiment: as above; type: cell-based; details: Fusarium verticillioides, 10^6 CFU/ml, 40-60 hours at 28° C.
Protocol: as §1, §7

[11] = tested on: Sporothrix schenckii IF08158; experiment: as above; type: cell-based; details: 10^6 CFU/ml, 40-60 hours at 28° C.
Protocol: as §1, §7

Mucor spinosus IF05317 = experiment: as above; type: cell-based; details: 10^6 CFU/ml, 40-60 hours at 28° C.
Protocol: as §1, §7

A. fumigatus IAM2034 = experiment: as above; type: cell-based; details: Aspergillus fumigatus, 10^6 CFU/ml, 40-60 hours at 28° C.
Protocol: as §1, §7

Candida albicans IAM4888 = experiment: as above; type: cell-based; details: 10^6 CFU/ml, 40-60 hours at 28° C.
Protocol: as §1, §7

[12] = tested on: Cryptococcus neoformans D49; experiment: as above; type: cell-based; details: 10^6 CFU/ml, 40-60 hours at 28° C.
Protocol: as §1, §7

[13] = tested on: Aspergillus fumigatus IAM2530; experiment: as above; type: cell-based; details: 10^6 CFU/ml, 40-60 hours at 28° C.
Protocol: as §1, §7

C. neoformans IAM4514 = experiment: as above; type: cell-based; details: Cryptococcus neoformans, 10^6 CFU/ml, 40-60 hours at 28° C.
Protocol: as §1, §7

[14] = tested on: Blastomyces dermatitidis D40; experiment: as above; type: cell-based; details: 10^6 CFU/ml, 40-60 hours at 28° C.
Protocol: as §1, §7

T. mentagrophytes #4329 = experiment: as above; type: cell-based; details: Trichophyton mentagrophytes, 10^6 CFU/ml, 40-60 hours at 28° C.
Protocol: as §1, §7

[15] = tested on: Trichophyton mentagrophytes D155; experiment: as above; type: cell-based; details: 10^6 CFU/ml, 40-60 hours at 28° C.
Protocol: as §1, §7

[16] = tested on: Petriellidium boydii IF08078; experiment: as above; type: cell-based; details: Scedosporium boydii, 10^6 CFU/ml, 40-60 hours at 28° C.
Protocol: as §1, §7

[17] = tested on: Candida albicans ATCC 38247 (polyene-R); experiment: In vitro antifungal activity, serial agar dilution, yeast morphology agar (Table 4b); type: cell-based; details: ATCC38247, 60 h
Protocol: as §1, §2, §3, §4, §5

Solubility = type: physicochemical

| Structure (SMILES) | MIC [1] [µg/mL] | MIC [2] [µg/mL] | MIC [3] [µg/mL] | MIC [4] [µg/mL] | MIC [5] [µg/mL] | MIC (Candida albicans A9540) [µg/mL] | MIC [6] [µg/mL] | MIC [7] [µg/mL] | MIC [8] [µg/mL] | MIC [9] [µg/mL] | MIC (C. albicans A9540) [µg/mL] | MIC [10] [µg/mL] | MIC [11] [µg/mL] | MIC (Mucor spinosus IF05317) [µg/mL] | MIC (A. fumigatus IAM2034) [µg/mL] | MIC (Candida albicans IAM4888) [µg/mL] | MIC [12] [µg/mL] | MIC [13] [µg/mL] | MIC (C. neoformans IAM4514) [µg/mL] | MIC [14] [µg/mL] | other results |
| --- | --- | --- | --- | --- | --- | --- | --- | --- | --- | --- | --- | --- | --- | --- | --- | --- | --- | --- | --- | --- | --- |
| COc1cc(O)c2c(c1)C(=O)c1c(cc3c(c1O)-c1c(cc(C)c(C(=O)N[C@H](CO)C(=O)O)c1O)[C@H](O[C@@H]1O[C@H](C)[C@H](N(C)C)[C@H](O[C@@H]4O[C@H](CO)[C@@H](O)[C@H](O)[C@H]4O)[C@H]1O)[C@H]3O)C2=O [N-Methyl Pradimicin FL] | 6.3 (≈ 6.99 µM) | 12.5 (≈ 13.9 µM) | 6.3 (≈ 6.99 µM) | 6.3 (≈ 6.99 µM) | 6.3 (≈ 6.99 µM) | 6.3 (≈ 6.99 µM) | 6.3 (≈ 6.99 µM) | 12.5 (≈ 13.9 µM) | 3.1 (≈ 3.44 µM) | 6.3 (≈ 6.99 µM) | – | – | – | – | – | – | – | – | – | – | – |
| COc1cc(O)c2c(c1)C(=O)c1c(cc3c(c1O)-c1c(cc(C)c(C(=O)N[C@H](C)C(=O)O)c1O)[C@H](O[C@@H]1O[C@H](C)[C@H](N(C)C)[C@H](O[C@@H]4O[C@H](CO)[C@@H](O)[C@H](O)[C@H]4O)[C@H]1O)[C@H]3O)C2=O [N-Methyl Pradimicin L] | – | – | – | – | – | – | – | – | – | – | 12.5 (≈ 14.1 µM) | 12.5 (≈ 14.1 µM) | 1.6 (≈ 1.81 µM) | > 100 | 6.3 (≈ 7.12 µM) | 12.5 (≈ 14.1 µM) | 6.3 (≈ 7.12 µM) | 6.3 (≈ 7.12 µM) | 6.3 (≈ 7.12 µM) | 6.3 (≈ 7.12 µM) | MIC (T. mentagrophytes #4329): 25 µg/mL (≈ 28.3 µM); MIC [15]: 25 µg/mL (≈ 28.3 µM); MIC [16]: 25 µg/mL (≈ 28.3 µM) |
| CN[C@@H]1[C@H](O[C@@H]2OC[C@@H](O)[C@H](O)[C@H]2O)[C@@H](O)[C@H](O[C@H]2c3cc(C)c(C(=O)N[C@H](C)C(=O)O)c(O)c3-c3c(cc4c(c3O)C(=O)c3cc(OC)cc(O)c3C4=O)[C@@H]2O)O[C@@H]1C [Pradimicin A, pradimicin A, reference compound] | 12.5 (≈ 14.9 µM) | 12.5 (≈ 14.9 µM) | 3.1 (≈ 3.69 µM) | 1.6 (≈ 1.9 µM) | 6.3 (≈ 7.49 µM) | 12.5 (≈ 14.9 µM) | 1.6 (≈ 1.9 µM) | > 100 | 6.3 (≈ 7.49 µM) | 1.6 (≈ 1.9 µM) | 100 (≈ 119 µM) | 6.3 (≈ 7.49 µM) | 1.6 (≈ 1.9 µM) | > 100 | 3.1 (≈ 3.69 µM) | 6.3 (≈ 7.49 µM) | 1.6 (≈ 1.9 µM) | 1.6 (≈ 1.9 µM) | 1.6 (≈ 1.9 µM) | 6.3 (≈ 7.49 µM) | MIC [17]: 6.3 µg/mL (≈ 7.49 µM); MIC (T. mentagrophytes #4329): 6.3 µg/mL (≈ 7.49 µM); MIC [15]: 1.6 µg/mL (≈ 1.9 µM); MIC [16]: 6.3 µg/mL (≈ 7.49 µM) |
| CN[C@@H]1[C@H](O[C@@H]2O[C@H](CO)[C@@H](O)[C@H](O)[C@H]2O)[C@@H](O)[C@H](O[C@H]2c3cc(C)c(C(=O)N[C@H](CO)C(=O)O)c(O)c3-c3c(cc4c(c3O)C(=O)c3cc(OC)cc(O)c3C4=O)[C@@H]2O)O[C@@H]1C [Pradimicin FL, pradimicin FL] | 6.3 (≈ 7.1 µM) | 6.3 (≈ 7.1 µM) | 3.1 (≈ 3.5 µM) | 3.1 (≈ 3.5 µM) | 6.3 (≈ 7.1 µM) | 6.3 (≈ 7.1 µM) | 1.6 (≈ 1.8 µM) | 6.3 (≈ 7.1 µM) | 3.1 (≈ 3.5 µM) | 3.1 (≈ 3.5 µM) | – | – | – | – | – | – | – | – | – | – | MIC [17]: 3.1 µg/mL (≈ 3.5 µM) |
| CN[C@@H]1[C@H](O[C@@H]2O[C@H](CO)[C@@H](O)[C@H](O)[C@H]2O)[C@@H](O)[C@H](O[C@H]2c3cc(C)c(C(=O)N[C@H](C)C(=O)O)c(O)c3-c3c(cc4c(c3O)C(=O)c3cc(OC)cc(O)c3C4=O)[C@@H]2O)O[C@@H]1C [Pradimicin L, pradimicin L] | 100 (≈ 115 µM) | > 100 | 3.1 (≈ 3.56 µM) | 1.6 (≈ 1.84 µM) | 6.3 (≈ 7.23 µM) | 25 (≈ 28.7 µM) | 0.8 (≈ 0.919 µM) | 100 (≈ 115 µM) | 6.3 (≈ 7.23 µM) | 3.1 (≈ 3.56 µM) | 12.5 (≈ 14.4 µM) | 6.3 (≈ 7.23 µM) | 0.8 (≈ 0.919 µM) | > 100 | 3.1 (≈ 3.56 µM) | 6.3 (≈ 7.23 µM) | 0.8 (≈ 0.919 µM) | 3.1 (≈ 3.56 µM) | 0.8 (≈ 0.919 µM) | 3.1 (≈ 3.56 µM) | MIC [17]: 3.1 µg/mL (≈ 3.56 µM); MIC (T. mentagrophytes #4329): 12.5 µg/mL (≈ 14.4 µM); MIC [15]: 6.3 µg/mL (≈ 7.23 µM); MIC [16]: 25 µg/mL (≈ 28.7 µM); Solubility (Solubility; dimethyl sulfoxide, dimethyl-formamide, acidic or alkaline water): Soluble in dimethyl sulfoxide, dimethyl-formamide, and acidic or alkaline water; Solubility (Solubility; ethanol, methanol, and water): slightly soluble in ethanol, methanol, and water |
